Tested on: CN0375-F725-PDC multi-cell spheroids, viability
Assay: Anticancer human tumor CN0375-F725-PDC patient-derived colon carcinoma cell line growth inhibition [TAK]
Conditions: for IC50: curve of first compound; for viability, T/C: stronger effect = lower value
Summary of the method: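 Tumor cells were grown as spheroids with HUVEC and hMSC (60:25:15) and treated with targeted agents combined with TAK-243 or ipatasertib. Drugs were tested in half-log steps down from near the clinical Cmax, or from 10 microM where Cmax was unknown.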

[1] = second compound 0.3 µM, first compound 0.0316 µM
[2] = second compound 0.3 µM, first compound 0.1 µM
[3] = second compound 0.3 µM, first compound 0.316 µM
[4] = second compound 0.3 µM, first compound 1 µM
[5] = second compound 0.3 µM, first compound 3.16 µM
[6] = second compound 0.3 µM, first compound 10 µM
[7] = second compound 0.949 µM, first compound 0.0316 µM
[8] = second compound 0.949 µM, first compound 0.1 µM
[9] = second compound 0.949 µM, first compound 0.316 µM
[10] = second compound 0.949 µM, first compound 1 µM
[11] = second compound 0.949 µM, first compound 3.16 µM
[12] = second compound 0.949 µM, first compound 10 µM
[13] = second compound 3 µM, first compound 0.0316 µM
[14] = second compound 3 µM, first compound 0.1 µM
[15] = second compound 3 µM, first compound 0.316 µM
[16] = second compound 3 µM, first compound 1 µM
[17] = second compound 3 µM, first compound 3.16 µM
[18] = second compound 3 µM, first compound 10 µM
[19] = second compound 9.49 µM, first compound 0.0316 µM
[20] = second compound 9.49 µM, first compound 0.1 µM
[21] = second compound 9.49 µM, first compound 0.316 µM
[22] = second compound 9.49 µM, first compound 1 µM
[23] = second compound 9.49 µM, first compound 3.16 µM
[24] = second compound 9.49 µM, first compound 10 µM
[25] = second compound 30 µM, first compound 0.0316 µM
[26] = second compound 30 µM, first compound 0.1 µM
[27] = second compound 30 µM, first compound 0.316 µM
[28] = second compound 30 µM, first compound 1 µM
[29] = second compound 30 µM, first compound 3.16 µM
[30] = second compound 30 µM, first compound 10 µM
[31] = second compound 0.3 µM, first compound 0.000316 µM
[32] = second compound 0.3 µM, first compound 0.001 µM
[33] = second compound 0.3 µM, first compound 0.00316 µM
[34] = second compound 0.3 µM, first compound 0.01 µM
[35] = second compound 0.949 µM, first compound 0.000316 µM
[36] = second compound 0.949 µM, first compound 0.001 µM
[37] = second compound 0.949 µM, first compound 0.00316 µM
[38] = second compound 0.949 µM, first compound 0.01 µM
[39] = second compound 3 µM, first compound 0.000316 µM
[40] = second compound 3 µM, first compound 0.001 µM
[41] = second compound 3 µM, first compound 0.00316 µM
[42] = second compound 3 µM, first compound 0.01 µM
[43] = second compound 9.49 µM, first compound 0.000316 µM
[44] = second compound 9.49 µM, first compound 0.001 µM
[45] = second compound 9.49 µM, first compound 0.00316 µM
[46] = second compound 9.49 µM, first compound 0.01 µM
[47] = second compound 30 µM, first compound 0.000316 µM
[48] = second compound 30 µM, first compound 0.001 µM
[49] = second compound 30 µM, first compound 0.00316 µM
[50] = second compound 30 µM, first compound 0.01 µM
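Note: spheroids exposed to drugs for seven days.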
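Throughout, for viability, T/C: 100% = DMSO vehicle control wells.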

Work on `CC(C)(C)c1nc(-c2cccc(NS(=O)(=O)c3c(F)cccc3F)c2F)c(-c2ccnc(N)n2)s1` + CC(C)NCC(C(=O)N1CCN(c2ncnc3c2C(C)CC3O)CC1)c1ccc(Cl)cc1 yielded an IC50 (second compound 0.3 µM) of over 10 µM, an IC50 (second compound 0.949 µM) of over 10 µM and an IC50 (second compound 3 µM) of over 10 µM. The IC50 (second compound 9.49 µM) was over 10 µM, the IC50 (second compound 30 µM) was over 10 µM and the viability, T/C [1] was 121%. The viability, T/C [2] was 128%, the viability, T/C [3] was 124% and the viability, T/C [4] was 118%. For the same compound, the viability, T/C [5] was 105%, the viability, T/C [6] was 108% and the viability, T/C [7] was 123%. For the same compound, the viability, T/C [8] was 125%, the viability, T/C [9] was 120% and the viability, T/C [10] was 111%. It also gave a viability, T/C [11] of 95%, a viability, T/C [12] of 107% and a viability, T/C [13] of 108%. It also gave a viability, T/C [14] of 119%, a viability, T/C [15] of 120% and a viability, T/C [16] of 103%. For the same compound, the viability, T/C [17] was 94.9%, the viability, T/C [18] was 92.1% and the viability, T/C [19] was 98%. The viability, T/C [20] was 108%, the viability, T/C [21] was 105% and the viability, T/C [22] was 97.9%. It also gave a viability, T/C [23] of 85.4%, a viability, T/C [24] of 86.2% and a viability, T/C [25] of 94.3%. For the same compound, the viability, T/C [26] was 102%, the viability, T/C [27] was 89.6% and the viability, T/C [28] was 79.3%. The viability, T/C [29] was 77.7% and the viability, T/C [30] was 75%.
For `CC(C)CC(NC(=O)CNC(=O)c1cc(Cl)ccc1Cl)B1OC(=O)CC(CC(=O)O)(C(=O)O)O1` (stereo not given) + CC(C)NCC(C(=O)N1CCN(c2ncnc3c2C(C)CC3O)CC1)c1ccc(Cl)cc1, the IC50 (second compound 0.3 µM) was 0.0493 µM, the IC50 (second compound 0.949 µM) was 0.0432 µM and the IC50 (second compound 3 µM) was 0.0458 µM. It also gave an IC50 (second compound 9.49 µM) of 0.0306 µM, an IC50 (second compound 30 µM) of 0.0175 µM and a viability, T/C [31] of 102%. For the same compound, the viability, T/C [32] was 104%, the viability, T/C [33] was 108% and the viability, T/C [34] was 99.4%. For the same compound, the viability, T/C [1] was 68.4%, the viability, T/C [2] was 20.7% and the viability, T/C [35] was 102%. It also gave a viability, T/C [36] of 99.8%, a viability, T/C [37] of 102% and a viability, T/C [38] of 98.8%. It also gave a viability, T/C [7] of 60.3%, a viability, T/C [8] of 22.4% and a viability, T/C [39] of 91.8%. The viability, T/C [40] was 101%, the viability, T/C [41] was 96.7% and the viability, T/C [42] was 101%. The viability, T/C [13] was 65.9%, the viability, T/C [14] was 16.4% and the viability, T/C [43] was 86%. The viability, T/C [44] was 92.5%, the viability, T/C [45] was 93.4% and the viability, T/C [46] was 93.6%. It also gave a viability, T/C [19] of 48.8%, a viability, T/C [20] of 15.6% and a viability, T/C [47] of 77.9%. For the same compound, the viability, T/C [48] was 91.7%, the viability, T/C [49] was 88.2% and the viability, T/C [50] was 76.2%. It also gave a viability, T/C [25] of 22.2% and a viability, T/C [26] of 5.95%.
With `CC(C)n1nc(-c2ccc3oc(N)nc3c2)c2c(N)ncnc21` + CC(C)NCC(C(=O)N1CCN(c2ncnc3c2C(C)CC3O)CC1)c1ccc(Cl)cc1 the IC50 (second compound 0.3 µM) was over 0.1 µM, the IC50 (second compound 0.949 µM) was over 0.1 µM and the IC50 (second compound 3 µM) was over 0.1 µM. It also gave an IC50 (second compound 9.49 µM) of 0.0765 µM, an IC50 (second compound 30 µM) of 0.0243 µM and a viability, T/C [31] of 108%. It also gave a viability, T/C [32] of 102%, a viability, T/C [33] of 95.8% and a viability, T/C [34] of 79.2%. The viability, T/C [1] was 71.1%, the viability, T/C [2] was 59.5% and the viability, T/C [35] was 96.9%. For the same compound, the viability, T/C [36] was 99.5%, the viability, T/C [37] was 89.7% and the viability, T/C [38] was 80.3%. For the same compound, the viability, T/C [7] was 68.3%, the viability, T/C [8] was 57.5% and the viability, T/C [39] was 90.6%. It also gave a viability, T/C [40] of 95.3%, a viability, T/C [41] of 87.4% and a viability, T/C [42] of 80.3%. The viability, T/C [13] was 65.9%, the viability, T/C [14] was 54.4% and the viability, T/C [43] was 84.9%. For the same compound, the viability, T/C [44] was 91.4%, the viability, T/C [45] was 82.6% and the viability, T/C [46] was 77.3%. For the same compound, the viability, T/C [19] was 60.3%, the viability, T/C [20] was 46.9% and the viability, T/C [47] was 67.7%. It also gave a viability, T/C [48] of 69.2%, a viability, T/C [49] of 75.6% and a viability, T/C [50] of 68.5%. It also gave a viability, T/C [25] of 44.4% and a viability, T/C [26] of 36.6%.
With `CCCS(=O)(=O)Nc1ccc(F)c(C(=O)c2c[nH]c3ncc(-c4ccc(Cl)cc4)cc23)c1F` + CC(C)NCC(C(=O)N1CCN(c2ncnc3c2C(C)CC3O)CC1)c1ccc(Cl)cc1 the IC50 (second compound 0.3 µM) was over 100 µM, the IC50 (second compound 0.949 µM) was over 100 µM and the IC50 (second compound 3 µM) was over 100 µM. The IC50 (second compound 9.49 µM) was 8.15 µM, the IC50 (second compound 30 µM) was 3.75 µM and the viability, T/C [3] was 105%. The viability, T/C [4] was 120%, the viability, T/C [5] was 106% and the viability, T/C [6] was 66.1%. For the same compound, the viability, T/C (second compound 0.3 µM, first compound 31.6 µM) was 26.5%, the viability, T/C (second compound 0.3 µM, first compound 100 µM) was 121% and the viability, T/C [9] was 101%. The viability, T/C [10] was 109%, the viability, T/C [11] was 99.8% and the viability, T/C [12] was 58.8%. It also gave a viability, T/C (second compound 0.949 µM, first compound 31.6 µM) of 10.6%, a viability, T/C (second compound 0.949 µM, first compound 100 µM) of 105% and a viability, T/C [15] of 98.2%. For the same compound, the viability, T/C [16] was 110%, the viability, T/C [17] was 89% and the viability, T/C [18] was 54.7%. The viability, T/C (second compound 3 µM, first compound 31.6 µM) was 9.13%, the viability, T/C (second compound 3 µM, first compound 100 µM) was 99.8% and the viability, T/C [21] was 95.7%. The viability, T/C [22] was 95.5%, the viability, T/C [23] was 79.8% and the viability, T/C [24] was 24.1%. The viability, T/C (second compound 9.49 µM, first compound 31.6 µM) was 27.2%, the viability, T/C (second compound 9.49 µM, first compound 100 µM) was 79.5% and the viability, T/C [27] was 86%. It also gave a viability, T/C [28] of 82.2%, a viability, T/C [29] of 54.7% and a viability, T/C [30] of 13.9%. The viability, T/C (second compound 30 µM, first compound 31.6 µM) was 2.73% and the viability, T/C (second compound 30 µM, first compound 100 µM) was 52.6%.

— PubChem BioAssay AID2060346 (Molecular Pharmacology Branch, DTP, NCI, 2025)
